Assay results reported in ChEMBL document CHEMBL1148088, “Vibrindole A, a metabolite of the marine bacterium, Vibrio parahaemolyticus, isolated from the toxic mucus of the boxfish Ostracion cubicus” (1994).

Columns and labels:
[1] = system: Staphylococcus aureus; experiment: Antimicrobial activity against Staphylococcus aureus Sau1091-5 at 100 ug/disk; assay type: functional; conditions: read-out: IZ
[2] = system: Staphylococcus; experiment: Antimicrobial activity against Staphylococcus albus Sal1091-4 at […]; assay type: functional, organism-based
[3] = system: Bacillus subtilis; experiment: Antimicrobial activity against Bacillus subtilis Bs1091-1 at 100 ug/disk; assay type: functional; conditions: read-out: IZ
[4] = system: Staphylococcus; experiment: Antimicrobial activity against Staphylococcus albus Sal1091-4 at 100 ug/disk; assay type: functional; conditions: read-out: IZ

`O=C1c2ccccc2NC1(c1c[nH]c2ccccc12)c1c[nH]c2ccccc12` gave a zone of inhibition at 100 µg/disc [1] of 11 mm.
GENTAMICIN gave an inhibition zone (IZ) [2] of 14 mm.
With `CC(c1c[nH]c2ccccc12)c1c[nH]c2ccccc12` [VIBRINDOLE A] the zone of inhibition at 100 µg/disc [1] was 11 mm, the zone of inhibition at 100 µg/disc [3] was 7 mm and the zone of inhibition at 100 µg/disc [4] was 11 mm.
